Results reported in patent publication US20210196714A1, “COMPOSITIONS AND METHODS FOR TREATING DISORDERS CHARACTERIZED WITH ABERRANT RAS/MAPK SIGNALING” (Duke University, priority 2018, published 2021).

What was measured:
[1] = test system: zebrafish kmt2d morphants; experiment: Rescue of convergent-extension (CE) phenotype in kmt2d morphants; type: in vivo
morphant KS embryos = conditions: Bogershausen et al. 2015; cited from earlier work

| SMILES | amelioration of CE defects over serial dilutions ([1]; 1 nM to 1 μM, 8-10 somite stage) | CE defects at 50 nM and 100 nM doses ([1]; dose response, 50 and 100 nM) | rescue of CE-driven phenotypes (morphant KS embryos) |
| --- | --- | --- | --- |
| CC(C)(C)c1nc(-c2cccc(NS(=O)(=O)c3c(F)cccc3F)c2F)c(-c2ccnc(N)n2)s1 [Dabrafenib, reference compound] | did not result in significant amelioration | marginal improvements | – |
| O=C(NOCC1CC1)c1cc(Br)c(F)c(F)c1Nc1ccc(I)cc1Cl [PD184161] | – | – | phenocopy this rescue |
